Patent US8048880B2, “Treatment of cardiovascular disease and dyslipidemia using secretory phospholipase A2 (SPLA2) inhibitors and SPLA2 inhibitor combination therapies” (Anthera Pharmaceuticals, Inc., priority 2007, dated 2011)

Columns and labels:
ApoE−/− mice = assay: En face lesion size in ApoE−/− mice on high fat diet, A-002 and/or statin (Example 3); format: in vivo; settings: alone or plus 0.02 g/kg pravastatin, 12 weeks
Experimental: Body weight, plasma total cholesterol, and plasma HDL levels were measured for six groups of twelve ApoE^−/− mice. The mice were then placed on a high fat diet for twelve weeks to allow for formation of significant fatty atherosclerotic plaques. The high fat diet was a modified version of the Western diet (TD.88137, Harlan Teklad, Madison, Wis.) consisting of casein (195 g/kg), DL-methionine (3 g/kg), sucrose (341.44 g/kg), corn starch (150 g/kg), anhydrous milkfat (210 g/kg), cholesterol (1.5 g/kg), cellulose (50 g/kg), mineral mix AlN-76 (Teklad; 35 g/kg), calcium carbonate (4 g/kg), vitamin mix (Teklad #40060; 10 g/kg), ethyoxyquin (antioxidant, 0.04 g/kg), and either 0.0156 g/kg (“low dose”) A-002 (Group A), 1.56 g/kg (“high dose”) A-002 (Group B), 0.02 g/kg pravastatin (Group C), low dose A-002 plus 0.02 g/kg pravastatin (Group D), high dose A-002 plus 0.02 g/kg pravastatin (Group E), or vehicle only (Group F). Mice were administered diets A-F in a blinded manner, and food was provided ad libitum. The diet was initially prepared based on the assumption that each mouse weighed 22.5 g and ate 4.5 g/day. Based on body weight and food consumption, the diet was modified over the 12 week course of treatment to adjust for a body weight of 26 g and a food intake of 2.5 g/day. The dosages of A-002 were selected to cover a range of 100-fold based on pharmacokinetics in ApoE^−/− mice as well as toxicology and previously observed efficacy in this model.
After twelve weeks, mice were sacrificed and plasma, heart tissue, and aortic tissue were collected. En face lesion size was determined via digital imaging analysis. Plaque content (as measured as en face lesion) was reduced in mice administered A-002 alone, statin alone, or A-002 in combination with statin. The reduction in plaque content in mice administered A-002 plus statin was substantially greater than the reduction in mice administered either compound alone (Table 2, compare Group D vs. Groups A and C; Group E vs. Groups B and C). Further, the reduction in plaque content in mice administered A-002 plus statin was substantially greater than the sum of the reduction in plaque content in mice administered A-002 alone and mice administered statin alone.

[1] = test system: human subjects with CVD, specifically stable CAD; assay: Serum lipid levels and LDL particle size in humans, A-002 once a day for eight weeks (Example 6); format: in vivo; settings: for % change vs. baseline (mean LDL particle size) / % change vs. baseline (mean [non-HDL cholesterol]) / % change vs. baseline (mean [total cholesterol]) / % change vs. baseline (median [ApoB]) / % change vs. baseline (median [TG]) / % change vs. baseline (median [oxidized LDL]) / % change vs. baseline (median [small LDL particle]) / Change in mean LDL particle size vs. baseline / Change in mean [non-HDL cholesterol] vs. baseline / Change in mean [total cholesterol] vs. baseline / Change in median [ApoB] vs. baseline / Change in median [TG] vs. baseline / Change in median [oxidized LDL] vs. baseline / Change in median [small LDL particle] vs. baseline / % change vs. baseline (mean [LDL]) / Change in mean [LDL] vs. baseline: week 8
IL-6 = assay: Serum IL-6 concentration in humans with metabolic syndrome, A-002 twice a day (Example 4); format: in vivo, human; settings: metabolic syndrome subpopulation, week 8
Experimental: (§1) 204 human subjects from the United States with CVD, specifically stable coronary artery disease, were randomized to receive placebo or A-002 via oral administration twice a day over an eight week administration period at dosages of 50 mg, 100 mg, 250 mg, or 500 mg. Levels of various lipids and inflammatory markers were measured at the outset of the trial and at the end of weeks four and/or eight. For data sets with a normal distribution, mean levels of lipids or inflammatory markers were analyzed. For data sets with non-normal distribution, median levels were analyzed. […] In addition, administration of A-002 decreased median levels of CRP (Table 11).
Serum TG, CRP, and IL-6 levels were measured at eight weeks in 86 subjects from the ITT population diagnosed with metabolic syndrome.

sPLA2 = assay: Serum sPLA2 concentration in humans, A-002 twice a day (Example 4); format: in vivo, human; settings: ITT population, week 8
Experimental: as §1

[2] = high dose A-002 (1.56 g/kg diet)
[3] = low dose A-002 (0.0156 g/kg diet)
[4] = ITT population, A-002 once a day
[5] = serum, ITT population, A-002 250 or 500 mg once a day
[6] = statin subpopulation with baseline serum LDL greater than 70 mg/dl, A-002 once a day
[7] = statin subpopulation, A-002 once a day

With `CCc1c(C(=O)C(N)=O)c2c(OCC(=O)OC)cccc2n1Cc1ccccc1` [A-002, [[3-(2-Amino-1,2-dioxoethyl)-2-ethyl-1-(phenylmethyl)-1H-indol-4-yl]oxy]acetic acid methyl ester] the “Change in mean % en face lesion vs. control” value (ApoE−/− mice; [2]) was −4.158%, the “Mean % en face lesion” value (ApoE−/− mice; [2]) was 1.469% and the “Change in mean % en face lesion vs. control” value (ApoE−/− mice; [3]) was −2.241%. The “Mean % en face lesion” value (ApoE−/− mice; [3]) was 3.386%, the “combined effect of A-002 and statins on LDL levels versus either compound alone” value ([1]; A-002 once a day, expected once additional non-statin controls are obtained) was “synergistic decrease in LDL levels” and the “% change vs. baseline (mean LDL particle size)” value [1, 4] was “+0.6%”. For the same molecule, the “% change vs. baseline (mean [non-HDL cholesterol])” value [1, 4] was −9.9%, the “% change vs. baseline (mean [total cholesterol])” value [1, 4] was −7.3% and the “% change vs. baseline (median [ApoB])” value [1, 4] was −11.9%. For the same molecule, the “% change vs. baseline (median [TG])” value [1, 4] was −9.8%, the “% change vs. baseline (median [oxidized LDL])” value [1, 4] was −3.6% and the “% change vs. baseline (median [small LDL particle])” value [1, 4] was −9.1%. For the same molecule, the “Change in mean LDL particle size vs. baseline” value [1, 4] was “+0.11 nm”, the “Change in mean [non-HDL cholesterol] vs. baseline” value [1, 4] was -10.5 mg/dL and the “Change in mean [total cholesterol] vs. baseline” value [1, 4] was -11.5 mg/dL. The “Change in median [ApoB] vs. baseline” value [1, 4] was -8.1 mg/dL, the “Change in median [TG] vs. baseline” value [1, 4] was -13.0 mg/dL and the “Change in median [oxidized LDL] vs. baseline” value [1, 4] was −1.4 U/L. The “Change in median [small LDL particle] vs. baseline” value [1, 4] was -74.0 nmol/L, the “% change vs. baseline (mean [LDL])” value [1, 5] was −8.3% and the “Change in mean [LDL] vs. baseline” value [1, 5] was -7.1 mg/dL. The “% change vs. baseline (mean LDL particle size)” value [1, 6] was “+1.0%”, the “% change vs. baseline (mean [LDL])” value [1, 6] was −15.0% and the “% change vs. baseline (mean [non-HDL cholesterol])” value [1, 6] was −13.7%. The “% change vs. baseline (mean [total cholesterol])” value [1, 6] was −10.5%, the “% change vs. baseline (median [ApoB])” value [1, 6] was −18.7% and the “% change vs. baseline (median [oxidized LDL])” value [1, 6] was −5.6%. The “% change vs. baseline (median [small LDL particle])” value [1, 6] was −12.3%, the “Change in mean LDL particle size vs. baseline” value [1, 6] was “+0.19 nm” and the “Change in mean [LDL] vs. baseline” value [1, 6] was -13.9 mg/dL. For the same molecule, the “Change in mean [non-HDL cholesterol] vs. baseline” value [1, 6] was -16.7 mg/dL, the “Change in mean [total cholesterol] vs. baseline” value [1, 6] was -18.0 mg/dL and the “Change in median [ApoB] vs. baseline” value [1, 6] was -13.1 mg/dL. The “Change in median [oxidized LDL] vs. baseline” value [1, 6] was −2.8 U/L, the “Change in median [small LDL particle] vs. baseline” value [1, 6] was -115.0 nmol/L and the “% change vs. baseline (mean LDL particle size)” value [1, 7] was “+0.5%”. The “% change vs. baseline (mean [LDL])” value [1, 7] was −8.2%, the “% change vs. baseline (mean [non-HDL cholesterol])” value [1, 7] was −9.9% and the “% change vs. baseline (mean [total cholesterol])” value [1, 7] was −7.3%. The “% change vs. baseline (median [ApoB])” value [1, 7] was −11.9%, the “% change vs. baseline (median [TG])” value [1, 7] was −10.9% and the “% change vs. baseline (median [oxidized LDL])” value [1, 7] was −2.9%. For the same molecule, the “% change vs. baseline (median [small LDL particle])” value [1, 7] was −8.2%, the “Change in mean LDL particle size vs. baseline” value [1, 7] was “+0.10 nm” and the “Change in mean [LDL] vs. baseline” value [1, 7] was -6.7 mg/dL. For the same molecule, the “Change in mean [non-HDL cholesterol] vs. baseline” value [1, 7] was -10.1 mg/dL, the “Change in mean [total cholesterol] vs. baseline” value [1, 7] was -11.2 mg/dL and the “Change in median [ApoB] vs. baseline” value [1, 7] was -7.9 mg/dL. For the same molecule, the “Change in median [TG] vs. baseline” value [1, 7] was -13.0 mg/dL, the “Change in median [oxidized LDL] vs. baseline” value [1, 7] was −1.1 U/L and the “Change in median [small LDL particle] vs. baseline” value [1, 7] was -66.0 nmol/L. The “% change vs. baseline (mean [IL-6])” value (IL-6) was −4.29%, the “Change in mean [IL-6] vs. baseline” value (IL-6) was -0.24 pg/mL and the “% change vs. baseline (median [sPLA2])” value (sPLA2) was −86.96%. The “Change in median [sPLA2] vs. baseline” value (sPLA2) was -2.00 ng/mL.
